According to patent publication US6989435B2, “Compounds and methods to inhibit or augment an inflammatory response” (Cambridge University Technical Services Ltd., priority 1997, dated 2006):

Columns and labels:
[1] = test system: TGFβ1 induced THP-1 migration; assay: Trans-well THP-1 migration assay, TGFβ1 as non-chemokine control chemoattractant; type: cell-based, human
Description: Any method suitable for counting cells can be used, for example, counting with a hemocytometer, incubation of the cells with MTT (see above), or FACS analysis. A negative control assay is also performed, using TGF-β or another non-chemokine chemoattractant (e.g., IL1β or TNFα). To assess whether the agent is cytotoxic, the same concentrations of agent are incubated with THP-1 cells. Agents which 1) are not cytotoxic at levels which inhibit migration, 2) are ineffective at inhibiting the negative control-induced migration, and 3) reduce or inhibit chemokine-induced THP-1 migration, are agents which fall within the scope of the invention.
For this assay, THP-1 cells were maintained at a density of 4×10^5 cells per ml in RPMI-1640 supplemented with 10% fetal calf serum+20 μM 2-mercaptoethanol. Chemotaxis was induced in a 96-well disposable chemotaxis chamber fitted with a […] polycarbonate filter (PVP free, ChemoTX, Neuroprobe Inc., Cabin John). Twenty-nine μl of chemoattractant (recombinant human chemokine; 50 ng/ml, i.e., 5.9 nM) or control (100 ng/ml TGFβ) was added to the lower compartment of each well. The framed filter was aligned with the holes in the corner of the filter frame and placed over the wells. Five×10^4 THP-1 cells in 25 μl of RPMI-1640 culture media were added to the upper compartment. Peptides were dissolved in Milli Q water and then serially diluted in culture medium. […]
After incubation, the cells were gently removed from the top of the filter with a pipette, 20 μl of 20 mM EDTA in PBS was added into each top well, and the mixture was incubated for 20 minutes at 4° C. […] A standard curve was prepared to accurately quantify the number of THP-1 cells that had migrated. […] Absorbance of converted dye was measured at a wavelength of 595 nm using an ELISA plate reader. The number of cells that had migrated in each well was determined by interpolation of the standard curve.
To investigate the receptor specificity of peptide 3 inhibition, the ED50 was determined for peptide 3(1-12)[MCP-1] […]

[2] = test system: MIP1α induced THP-1 migration; assay: Trans-well THP-1 migration assay, MIP1α as chemoattractant; type: cell-based, human; settings: Table 4(b); 100 μM peptide; n.s. = no statistically significant inhibition
Description: FIG. 1 is a schematic of the trans-well migration assay. In most experiments, the peptide (wavy line) is added to the upper well with about 50,000 cells (O). The upper and lower wells are separated by a 5 μm or 8 μm pore size PVP-free membrane (- - - -). Chemokine (●) is added to the lower well. After 4 hours, the number of cells that have migrated through the membrane are measured (◯ in lower well).
To determine whether an agent inhibits a chemokine-induced activity, such as macrophage recruitment, varying amounts of the agent are mixed with cells in the presence of a known chemoattractant. For example, a range of known concentrations of an agent, e.g., a chemokine peptide, is incubated with a defined number (e.g., 10^4-10^6) of human THP-1 monocyte cells in individual wells of the top compartment of a trans-well plate. […] A standard curve consisting of a two-fold dilution series of THP-1 cells (in 29 μl) is prepared to accurately quantify the number of cells that have migrated. […] Absorbance of converted dye is measured at a wavelength of 595 nm using an ELISA plate reader. The number of migrated cells in each well is then determined by interpolation of the standard curve (see also Imai et al., J. Biol. Chem., 272, 15036 (1997)). […]

EICADPKQKWVQ [Peptide 3]
Extent of inhibition of THP-1 migration at 100 μM, TGFβ1 ([1]; Table 4(b), 100 μM peptide, n.s. = no statistically significant inhibition): n.s.
inhibition of TGF-beta induced THP-1 migration ([1]; even at 100 μM): did not significantly inhibit
Extent of inhibition of THP-1 migration at 100 μM, MIP1α [2]: 99%
